In assay [1] the test system is BJ-TERT/LT/ST/RAS^V12 cells. As to the kind of experiment: Cell death, viable cells counted using a hemacytometer. In kind it is cell-based, human. Conditions: 13 μM erastin Al, 23 μM antimycin, 126 μM 2-ME or the combinations.
In assay [2] the test system is BJ-TERT/LT/ST/RAS^V12 cells. The experiment in a line: Suppression of erastin lethality by MEK inhibitors (Trypan Blue). The assay is classed as cell-based, human. To be noted: U0126 20 μM, MEK inhibitor I 10 μM, MEK 1/2 inhibitor 50 μM, 48 h.
Procedure: BJ-TERT/LT/ST/RASV12 engineered tumor cells were treated with the indicated concentrations of erastin and each MEK1/2 inhibitor for 24 hours and viability was determined by Trypan Blue exclusion.
Cells grown in 175 cm^2 flasks were reseeded in 6-well format (1.4×10^5 cells/well) and treated with erastin dilutions (5-fold, from 36 uM to 60 nM, with no-drug control, n=2) in the presence of one of the MEK inhibitors U0126 (20 uM), MEK inhibitor I (10 uM), MEK 1/2 inhibitor (50 uM), PD98059 (50 uM), MEK inhibitor II (30 uM), or in the absence of inhibitor. After 48 hours, cells were trypsinized and counted using a Vi-CELL™ Series Cell Viability Analyzer. […] Non-linear regression was used to fit curves to the data points using GraphPad Prism™ software. The bottom of each curve was set to zero.
The test system of assay [3] is BJ-TERT/LT/ST/RAS^V12 cells. The experiment in a line: Suppression of erastin lethality by iron chelators (Alamar Blue). The assay is classed as cell-based, human. To be noted: 100 μM DFOM, 100 μM 1a, 100 μM 2, 10 μM or 1 μM 311, 24 h. As for the experimental part:
BJ-TERT/LT/ST/RAS^V12 cells were treated with erastin and four different iron chelators, desferrioxamine mesylate (DFOM), the compounds 1a and 2 whose structures are shown in FIG. 30, and the compound “311” (311-10 or 311-1) (Green, D. A, et al., Inhibition of Malignant Cell Growth by 311, a novel iron chelator of the pyridoxal isonicotinoyl hydrazone class: Effect on the R2 subunit of ribonucleotide reductase. Clinical Cancer Research, (7): 3574-3579 (2001). Cell killing was measured by Alamar Blue assay.
(a) BJ-TERT/LT/ST/RAS^V12 cells were treated with 9 μM erastin A1 for the indicated length of time, and the number of viable cells determined. (b) 1,000 BJ-TERT/LT/ST/RAS^V12 cells/well in 384-well plates were treated with erastin for 2 d, then alamar blue was added to a final concentration of 10% and the plates were incubated for 16 h. Red fluorescence resulting from reduction of alamar blue was detected on a Victor3 platereader. […] (e) The number of viable cells was quantified under each condition using a hemacytometer. […] BJ-TERT/LT/ST/RAS^V12 (shown in histogram plots, and in line graph as dark diamonds) or BJ-TERT cells (shown in line graph only, light circles) were treated with 4.6-μM erastin A1 and the level of intracellular oxidative species determined. […] ATP levels were measured, viable cells determined by Trypan Blue exclusion and ATP per viable cell determined. […]
A general note: Resazurin is reduced to fluorescent resorufin, in cell work by metabolically active cells.

The subject of the next assay is BJ-TERT/LT/ST/RASV12. The experiment in a line: Alamar blue viability assay, engineered tumor cells. The assay is classed as cell-based, human. To be noted: for selective lethality / activity in cells: BJ-TERT/LT/ST/RAS^V12 cells vs BJ-TERT cells. How it is done: Erastin was tested in a dilution series in five engineered cell lines derived from primary BJ fibroblasts. Cells were incubated with erastin for two days at 37° C. with 5% CO2, Alamar blue was added (10% final volume) and fluorescence measured (530 nm ex, 590 nm em). Cell lines harboring oncogenic RAS (triangles, circles and x's) were sensitive to erastin, but isogenic lines lacking oncogenic RAS (squares and diamonds) were resistant. Two different clones of engineered tumor cells (circles and triangles) responded similarly.
(a) BJ-TERT/LT/ST/RAS^V12 cells were treated with 9 μM erastin A1 for the indicated length of time, and the number of viable cells determined. (b) 1,000 BJ-TERT/LT/ST/RAS^V12 cells/well in 384-well plates were treated with erastin for 2 d, then alamar blue was added to a final concentration of 10% and the plates were incubated for 16 h. Red fluorescence resulting from reduction of alamar blue was detected on a Victor3 platereader. The percent growth inhibition is shown; error bars represent one SD. […] (c) TEM images (20,000× magnification) of BJ-TERT/LT/ST/RAS^V12 mitochondria after cells were treated with nothing, erastin (37 μM for 10 h) or staurosporine (STS, 1 μM for 5 h), and phase-contrast photograph of BJ-TERT/LT/ST/RAS^V12 cells 24 h after 9 μM erastin A1 treatment is also shown to indicate that even after cell death, nuclei are intact. (d) Anti-oxidants suppress erastin-induced death. BJ-TERT/LT/ST/RAS^V12 cells were treated as indicated and photographed. (e) The number of viable cells was quantified under each condition using a hemacytometer. (f) Iron chelators suppress erastin-induced cell death. Cells were seeded in 384-well plates (6,000 cells/well) and treated with 2-fold dilution series of erastin in the presence of 100 μM desferrioxamine mesylate (DFOM), 100 μM of iron chelator 1a, 100 μM of iron chelator 2, 10 μM or 1 μM of iron chelator 311. After 24 h, alamar blue was added and cell viability assayed. (g, h) Erastin-induced formation of oxidative species. BJ-TERT/LT/ST/RAS^V12 (shown in histogram plots, and in line graph as dark diamonds) or BJ-TERT cells (shown in line graph only, light circles) were treated with 4.6-μM erastin A1 and the level of intracellular oxidative species determined. (i, j) STS, but not erastin, induces PARP1 cleavage (red bands at top) in BJ-TERT/LT/ST/RAS^V12 cells and in A673, HT1080 and HeLa cells. NS: non-specific band. […] Cells were treated with STS or erastin, separated into mitochondrial and cytosolic fractions, and probed for cytochrome c (lower red band) and total VDAC (middle green band, pan-VDAC antibody). (1) Caspase-3 is not cleaved in response to erastin. Cells were treated as indicated and probed with an anti-caspase-3 antibody that recognizes both the full length and the cleaved, active form (lower band). […] ATP levels were measured, viable cells determined by Trypan Blue exclusion and ATP per viable cell determined. Abbreviations: DMSO, dimethylsulfoxide; BHT, butylated hydroxytoluene; TOC, alpha-tocopherol; ERA, erastin A1; CAR, beta-carotene; STS, staurosprine.
(a) Calu-1 lung carcinoma cells harboring oncogenic KRAS were infected with lentivirus containing shRNAs targeting KRAS or GFP. Sequences of shRNAs are indicated by starting nucleotide (nt) in the KRAS mRNA coding sequence. Cells were treated with erastin and viability measured by Trypan Blue exclusion. (b) Knockdown of KRAS was confirmed by western blot. (c,d) A673 cells harboring oncogenic BRAF were infected with lentiviral shRNAs targeting BRAF exon 5 (c) or the 5′ UTR (d), luciferase (LUC)(c) or GFP (d). Cells were treated with erastin and viability measured using Alamar Blue (c) and Trypan Blue (d). (e) Knockdown of BRAF was confirmed by western blot. […] BJ-TERT/LT/ST/RAS^V12 cells were treated with erastin alone or in with a MEK inhibitor U0126 (20 μM), MEK inhibitor I (10 μM) or MEK 1/2 inhibitor (50 μM). After 48 h, viability was determined using Trypan Blue. […]

The test system of the next assay is VDAC1, VDAC2 and VDAC3. The experiment in a line: VDAC chemi-proteomic identification (pull-down on immobilized erastin analogs). In kind it is binding, human. To be noted: BJ-TERT/LT/ST/RAS^V12 cell lysates. The source says: Erastin A6, Erastin A3, and erastin B2 were immobilized on solid-phase resins, and proteins that interact with A3 or A6, but not B2 were identified. […] In certain embodiments, wherein BJ-TERT cell lysates were used, a small amount of VDAC1 on the A3 and A6 resins was identified, but none of the VDACs were bound on the B2 resin. Thus, it appears that erastin A3 and A6 more efficiently isolate VDAC2 and VDAC3 compared to erastin B2.
Cultures of BJ-TERT and BJ-TERT/LT/ST/RAS^V12 cells (ten 150 mm plates) were washed with PBS, lysed in 25 mM hydroxyethylpiperazine-N′-2-ethanesulfonic acid (HEPES) pH 7.5, 150 mM NaCl, 1% NP-40, 10 mM MgCl2, 1 mM ethylene-diamine tetra acetate (EDTA), 10% glycerol, 1 mM dithiothreitol (DTT) and protease inhibitor cocktail. Protein concentration was determined using a Bradford colorimetric assay.
Erastin A3 and B2 were dissolved in DMSO at 10 mg/ml. 100 μL of AffiGel-10 was washed and resuspended in 400 μl DMSO. 10 μL of compound and 3 μL of 1:100 dilution of triethylamine in DMSO were added. […] Samples were analyzed using both a 4700 Proteomics Analyzer MALDI-TOF/TOF (TOF/TOF; Applied Biosystems) and a Q Trap (AB/MDS Sciez) and the peptide level data were combined. […]

Consider 13 molecules from patent US8535897B2, “Assays for non-apoptotic cell death and uses thereof” (The Trustees of Columbia University in the City of New York, priority 2006, dated 2013).

Counter-ions that a name gives are not always drawn.

For the molecule `COc1cc2c(cc1O)CC[C@@H]1[C@@H]2CC[C@]2(C)[C@@H](O)CC[C@@H]12` [2-ME, 2-methoxyestradiol], the “Cell death (%)” value in assay [1] was determined as 66%.
Take `N#CC(=C(N)Sc1ccc(N)cc1)c1ccccc1C(F)(F)F` [MEK 1/2 inhibitor]: the “effect of MEK inhibitor on erastin lethality” value in assay [2] is “prevent erastin lethality”.
Still for that read-out and setting: the same measure for `N#C/C(=C(/N)Sc1ccccc1N)c1cccc(C(O)c2ccncc2)c1` (centres unmarked) [MEK inhibitor I]: “prevent erastin lethality”.
The same measure, in the same setting: the same measure for `N#CC(=C(/N)Sc1ccccc1N)/C(C#N)=C(\N)Sc1ccccc1N` [U0126]: “prevent erastin lethality”.
Regarding `O=C(N/N=C/c1c(O)ccc2ccccc12)c1ccncc1` [compound 311], in assay [3], the “effect of iron chelator on erastin lethality” value is “suppress erastin lethality”.
On to `CC(=O)N(O)CCCCCNC(=O)CCC(=O)N(O)CCCCCNC(=O)CCC(=O)N(O)CCCCCN` [desferrioxamine mesylate], for which the “effect of iron chelator on erastin lethality” value in assay [3] was “suppress erastin lethality”.
In the case of `CCOc1ccccc1-n1c(C(C)N2CCN(C(=O)COc3ccc(CN)cc3)CC2)nc2ccccc2c1=O` (centres unmarked) [erastin A3], the “selective lethality / activity in cells” value in the assay with BJ-TERT/LT/ST/RASV12 was “retained the ability to kill BJ-TERT/LT/ST/RAS^V12 cells but not BJ-TERT cells”. Further, the “VDAC isoforms identified on the immobilized analog resin” value in the assay with VDAC1, VDAC2 and VDAC3 is “all three isoforms of the human mitochondrial voltage-dependent anion channels (VDAC1, VDAC2 and VDAC3) were identified”.
Consider `CCOc1ccccc1-n1c(C(C)N2CCN(C(=O)COc3ccc(CN)cc3)CC2)nc2ccccc2c1=O` (centres unmarked) [erastin A6], for which the “selective lethality / activity in cells” value in the assay on BJ-TERT/LT/ST/RASV12 (listed as ERA-A6) is reported as “selectively lethal to RASV12-expressing cells”. Moreover, in the assay on VDAC1, VDAC2 and VDAC3, the “VDAC isoforms identified on the immobilized analog resin” value was “all three isoforms of the human mitochondrial voltage-dependent anion channels (VDAC1, VDAC2 and VDAC3) were identified”.
With `CCOc1ccccc1-n1c(C(C)N2CCN(C(C)=O)CC2)nc2ccccc2c1=O` (centres unmarked) [erastin A8], the “selective lethality / activity in cells” value in the assay with BJ-TERT/LT/ST/RASV12 is “inactive”.
Molecule `CCOc1ccccc1-n1c(C(C)N2CCN(C(=O)COc3ccc(Cl)cc3)CC2)nc2cc(NC(C)=O)ccc2c1=O` (centres unmarked) [erastin A9] registered an IC50 in the assay on BJ-TERT/LT/ST/RASV12 (BJELR (BJ-TERT/LT/ST/RAS^V12) cells) of 1900 nM.
Regarding `CC(C)NC(=O)N(CCN1CCN(C(=O)COc2ccc(Cl)cc2)CC1)Cc1ccc(F)cc1` [erastin B1], in the assay on BJ-TERT/LT/ST/RASV12, the “selective lethality / activity in cells” value was “inactive”.
On to `CC(C)NC(=O)N(CCN1CCN(C(=O)COc2ccc(Cl)cc2)CC1)Cc1ccc(CN)cc1` [erastin B2], for which the “selective lethality / activity in cells” value in the assay on BJ-TERT/LT/ST/RASV12 was “lacks activity”. Moreover, in the assay with BJ-TERT/LT/ST/RASV12 (BJELR cells), the “lethality (no lethality up to)” value was more than 50 µM. In addition, the “VDAC isoforms identified on the immobilized analog resin” value with VDAC1, VDAC2 and VDAC3 was “only VDAC1”.
On to antimycin, for which the “Cell death (%)” value in assay [1] is recorded as 51%.

By IC50 is commonly meant the point on the concentration scale where inhibition reaches its midpoint. A lower IC50 goes with greater potency in that assay.
